Assay: xn = mol fraction of the nth substance listed, in the solute-free solvent

O=c1cc(CBr)c2ccccc2[nH]1 + CCO + O
solubility (g/100 g solution)
Conditions	278.15 K	283.15 K	288.15 K	293.15 K	298.15 K	303.15 K	308.15 K	313.15 K	318.15 K
x2 = 0.04165	0.0134	0.0174	0.023	0.0295	0.038	0.0476	0.0598	0.0753	0.0924
x2 = 0.08908	0.0233	0.0297	0.037	0.0455	0.0569	0.0694	0.0854	0.104	0.123
x2 = 0.1436	0.0341	0.042	0.0509	0.0622	0.075	0.0906	0.106	0.127	0.151
x2 = 0.2068	0.0469	0.0559	0.0666	0.0787	0.0931	0.11	0.128	0.148	0.172
x2 = 0.2812	0.0609	0.0715	0.0837	0.0964	0.112	0.13	0.148	0.168	0.193
x2 = 0.3698	0.0732	0.0845	0.0974	0.111	0.128	0.145	0.163	0.184	0.209
x2 = 0.4772	0.0832	0.0948	0.109	0.123	0.138	0.157	0.176	0.196	0.221
x2 = 0.6101	0.0917	0.103	0.116	0.131	0.147	0.164	0.182	0.202	0.224
x2 = 0.7788	0.0963	0.108	0.12	0.134	0.15	0.165	0.182	0.201	0.219
